We go through 13 molecules from article PMC6054517, “Design and synthesis of novel oridonin analogues as potent anticancer agents” (Journal of Enzyme Inhibition and Medicinal Chemistry, 2018).

The subject of one assay is AGS. Put plainly: MTT antiproliferative assay, AGS cells. It counts as cell-based, human. To be noted: 48 h, MTT, means ± SD, n = 3. The text has this:
(§1) Human gastric cancer (AGS), human differentiation of advanced gastric cancer (MGC803), human colorectal cancer (HCT116), human lung cancer (A549), human hepatocellular carcinoma (Bel7402) and human cervical cancer (HeLa) cell lines were obtained from the State Key Laboratory of Natural Resources and Functional Molecules of the Changbai Mountain (Yanbian University) and maintained in Dulbecco’s modified Eagle’s medium and RPMI Media 1640 (RPMI1640), supplemented with 10% foetal bovine serum 100 IU/ml penicillin, […] and 2 mmol/l L-glutamine (Sigma) at 37 °7 in a humidified atmosphere containing 5% CO2.
(§2) All six human cancer cell lines and normal L02 cells were seeded in 96-well plates at the appropriate densities to ensure exponential growth throughout the experimental period (9 × 10^3 cells per well) and then allowed to adhere for 24 h. The cells were then treated for 48 h with four serial dilutions (100, 50, 10, and 1 µM) of each compound. 5-Fluorouracil (5-FU) was used as the positive control. After incubation for 48 h, 10 µl MTT solution was added to each well to give a final concentration of 2 mg ml^−1. The plates were then incubated for further 4 h. After incubation, the MTT solution was removed and 150 µl DMSO was added to each well to solubilise the formed product. To ensure complete solubilisation, the plates were shaken vigorously for 10 min at room temperature. The optometric density (OD) was read on a microplate reader (ELx800, BioTek, Highland Park, Winooski, VT) at a wavelength of 492 nm and the data were subsequently analysed. The percentage of cell growth inhibition was calculated from the following equation: inhibitory rate (%) = [1–(ODtreated–ODblank)/(ODcontrol–ODblank)] × 100.
(§3) The MTT assay was performed using a standard protocol.
A general note: Tetrazolium dyes change colour on reduction, which living cells bring about.

Another assay concerns MGC803. Description: MTT antiproliferative assay, MGC803 cells. In kind it is cell-based, human. To be noted: MTT, 48 h, means ± SD, n = 3.
Text: as §1, §2, §3

The test system of another assay is Bel7402. Description: MTT antiproliferative assay, Bel7402 cells. It counts as cell-based, human. Particulars: MTT, 48 h, means ± SD, n = 3.
Text: as §1, §2, §3

Another assay deals with HCT116. Put plainly: MTT antiproliferative assay, HCT116 cells. To be noted: MTT, 48 h, means ± SD, n = 3. It counts as cell-based, human.
Text: as §1, §2, §3

The test system of a further assay is A549. Description: MTT antiproliferative assay, A549 cells. To be noted: MTT, 48 h, means ± SD, n = 3. In kind it is cell-based, human.
Text: as §1, §2, §3

Another assay deals with Hela. Description: MTT antiproliferative assay, HeLa cells. It counts as cell-based, human. To be noted: MTT, 48 h, means ± SD, n = 3.
Text: as §1, §2, §3

Assay [1] deals with AGS, MGC803, Bel7402, HCT116, A549, and HeLa. Put plainly: MTT assay, overall statement on six tumour cell lines. It counts as cell-based, human. Particulars: six cancer cell lines.
Text: as §1, §2, §3

The subject of a further assay is A549 cells. Particulars: cited from earlier work.

Read-outs that look alike come from different tables or passages of the source. Bounds are passed on as bounds.

By IC50 is commonly meant the midpoint of a concentration-inhibition curve. For the molecule `CC1(C)CC[C@H](O)C23CO[C@](O)([C@@H](O)[C@H]12)[C@]12C(=O)/C(=C/c4cccc(O)c4)[C@H](CC[C@@H]31)[C@H]2O` [Compound 2w, (1S,4aR,5S,6S,6aR,9S,11aS,14R,E)-1,5,6,14-tetrahydroxy-8-(3-hydroxybenzylidene)-4,4-dimethyldecahydro-1H-6,11b-(epoxymethano)-6a,9-methanocyclohepta[a]naphthalen-7(8H)-one], the IC50 in the assay with AGS (Homo sapiens, AGS) is greater than 100 µM; in the assay on MGC803 (Homo sapiens, MGC-803), greater than 100 µM; in the assay with Bel7402 (Homo sapiens, Bel-7402), greater than 100 µM; in the assay on HCT116 (Homo sapiens, HCT-116, 48 h), 22.1 ± 3.28 µM; with A549 (Homo sapiens, A549) it was greater than 100 µM; with Hela (Homo sapiens, HeLa), greater than 100 µM. In addition, the “antiproliferative activities against the six tumour cell lines (in words)” value (“antiproliferative activities” below) in assay [1] is listed as “poor antiproliferative activities”.

As to `CCOc1cccc2c1OC(C(=O)/C=C/c1ccc(N(C)C)cc1)C2` (stereo not drawn) [Compound 5], the half-maximal inhibitory concentration (IC50) with A549 cells (A549) was 9 µM.

Turning to `CC1(C)CC[C@H](O)C23CO[C@](O)([C@@H](O)[C@H]12)[C@]12C(=O)/C(=C/c4ccc(O)cc4)[C@H](CC[C@@H]31)[C@H]2O` [Compound 2x, (1S,4aR,5S,6S,6aR,9S,11aS,14R,E)-1,5,6,14-tetrahydroxy-8-(4-hydroxybenzylidene)-4,4-dimethyldecahydro-1H-6,11b-(epoxymethano)-6a,9-methanocyclohepta[a]naphthalen-7(8H)-one], the IC50 with AGS (Homo sapiens, AGS) was greater than 100 µM; in the assay on MGC803 (Homo sapiens, MGC-803) it was greater than 100 µM; with Bel7402 (Homo sapiens, Bel-7402) it was greater than 100 µM; in the assay with HCT116 (Homo sapiens, HCT-116, 48 h), 30.1 ± 3.57 µM; with A549 (Homo sapiens, A549) it was greater than 100 µM; in the assay on Hela (Homo sapiens, HeLa), greater than 100 µM. Also, the “antiproliferative activities” value in assay [1] is given as “poor antiproliferative activities”.

Regarding `CC1(C)CC[C@H](O)C23CO[C@](O)([C@@H](O)[C@H]12)[C@]12C(=O)/C(=C/c4ccccc4O)[C@H](CC[C@@H]31)[C@H]2O` [Compound 2v, (1S,4aR,5S,6S,6aR,9S,11aS,14R,E)-1,5,6,14-tetrahydroxy-8-(2-hydroxybenzylidene)-4,4-dimethyldecahydro-1H-6,11b-(epoxymethano)-6a,9-methanocyclohepta[a]naphthalen-7(8H)-one], the 50% inhibitory concentration (IC50) in the assay on AGS (Homo sapiens, AGS) is 30.3 ± 2.24 µM; in the assay on MGC803 (Homo sapiens, MGC-803), 32.9 ± 2.31 µM; in the assay on Bel7402 (Homo sapiens, Bel-7402), 60.3 ± 4.14 µM; in the assay on HCT116 (Homo sapiens, HCT-116, 48 h), 28.2 ± 2.67 µM; in the assay on A549 (Homo sapiens, A549), greater than 100 µM; with Hela (Homo sapiens, HeLa), greater than 100 µM. The “antiproliferative activities” value in assay [1] is on record as “poor antiproliferative activities”.

Regarding `CC1(C)CC[C@H](O)C23CO[C@](O)([C@@H](O)[C@H]12)[C@]12C(=O)/C(=C/c4ccc(N)cc4)[C@H](CC[C@@H]31)[C@H]2O` [Compound 2s, (1S,4aR,5S,6S,6aR,9S,11aS,14R,E)-8-(4-aminobenzylidene)-1,5,6,14-tetrahydroxy-4,4-dimethyldecahydro-1H-6,11b-(epoxymethano)-6a,9-methanocyclohepta[a]-naphthalen-7(8H)-one], the IC50 in the assay with AGS (Homo sapiens, AGS) is 51 ± 3.34 µM; in the assay on MGC803 (Homo sapiens, MGC-803), 53.2 ± 4.05 µM; in the assay on Bel7402 (Homo sapiens, Bel-7402), 7 ± 1.05 µM; in the assay with HCT116 (Homo sapiens, HCT-116, 48 h) it was 10 ± 1.13 µM; in the assay with A549 (Homo sapiens, A549), 99.8 ± 7.45 µM; in the assay on Hela (Homo sapiens, HeLa), greater than 100 µM. The “antiproliferative activities” value in assay [1] is given as “poor antiproliferative activities”.

`C=C1C(=O)O[C@@H]2/C=C(\C)CC/C=C(\C)CC[C@@H]12` [Costunolide]: the half-inhibitory concentration (IC50) in the assay with A549 cells (A549 cells) was 39.8 µM.

Consider `O=c1[nH]cc(F)c(=O)[nH]1` [Compound 5-FU, 5-Fluorouracil, reference compound], for which the IC50 worked out at 29.6 ± 3.4 µM in the assay on AGS (Homo sapiens, AGS); 30.5 ± 4.42 µM in the assay with MGC803 (Homo sapiens, MGC-803); 21.3 ± 2.43 µM with Bel7402 (Homo sapiens, Bel-7402); 24.8 ± 2.08 µM in the assay on HCT116 (Homo sapiens, HCT-116, 48 h); 23.7 ± 3.14 µM in the assay with A549 (Homo sapiens, A549); 34.6 ± 3.14 µM in the assay with Hela (Homo sapiens, HeLa).

As to “(1S,4aR,5S,6S,6aR,9S,11aS,14R,E)-8-(4-(((Z)-3,6-dimethylhepta-2,5-dien1yl)oxy)benzylidene)-1,5,6,14-tetrahydroxy-4,4-dimethyldecahydro-1H-6,11b-(epoxymethano)-6a,9-methanocyclohepta[a]naphthalen-7(8H)-one [Compound 2r]”, the IC50 in the assay on AGS stood at 13.7 ± 2.63 µM; in the assay on MGC803, 6.86 ± 1.24 µM; in the assay with Bel7402, 8.45 ± 1.32 µM; with HCT116, 2.39 ± 0.19 µM; in the assay with A549 it was 4.16 ± 0.45 µM; in the assay with Hela it was 9.85 ± 2.03 µM.

Turning to `CC1(C)CCC(O)C23COC(O)(C(O)C12)C12C(=O)C(=Cc4ccc(F)cc4)C(CCC31)C2O` [Compound 2c, (1S,4aR,5S,6S,6aR,9S,11aS,14R,E)-8-(4-fluorobenzylidene)-1,5,6,14-tetrahydroxy-4,4-dimethyldecahydro-1H-6,11b-(epoxymethano)-6a,9-methanocyclohepta[a]n-aphthalen-7(8H)-one], the half-maximal inhibitory concentration (IC50) is 14.3 ± 2.43 µM in the assay on AGS (Homo sapiens, AGS); greater than 100 µM in the assay on MGC803 (Homo sapiens, MGC-803); 12.6 ± 1.05 µM in the assay with Bel7402 (Homo sapiens, Bel-7402); 10.2 ± 1.12 µM in the assay on HCT116 (Homo sapiens, HCT-116, 48 h); 59.6 ± 4.75 µM in the assay on A549 (Homo sapiens, A549); greater than 100 µM in the assay with Hela (Homo sapiens, HeLa).

For the molecule `COc1cc(/C=C2/C(=O)[C@]34[C@H](O)[C@H]2CC[C@H]3C23CO[C@]4(O)[C@@H](O)[C@@H]2C(C)(C)CC[C@@H]3O)cc(OC)c1OC` [Compound 2n, (1S,4aR,5S,6S,6aR,9S,11aS,14R,E)-1,5,6,14-tetrahydroxy-4,4-dimethyl-8-(3,4,5-trimethoxybenzylidene)decahydro-1H-6,11b-(epoxymethano)-6a,9-methanocyclo-hepta[a]naphthalen-7(8H)-one], the concentration for half-maximal inhibition (IC50) was 17.3 ± 2.41 µM in the assay on AGS (Homo sapiens, AGS); 28 ± 1.73 µM in the assay on MGC803 (Homo sapiens, MGC-803); 14.6 ± 1.21 µM with Bel7402 (Homo sapiens, Bel-7402); 18.6 ± 1.78 µM with HCT116 (Homo sapiens, HCT-116, 48 h); 15.8 ± 1.47 µM in the assay on A549 (Homo sapiens, A549); 8.89 ± 0.94 µM with Hela (Homo sapiens, HeLa).

For `CC(=O)Nc1ccc(/C=C2/C(=O)[C@]34[C@H](O)[C@H]2CC[C@H]3C23CO[C@]4(O)[C@@H](O)[C@@H]2C(C)(C)CC[C@@H]3O)cc1` [Compound 2t, N-(4-((E)-((1S,4aR,5S,6S,6aR,9S,11aS,14R)-1,5,6,14-tetrahydroxy-4,4-dimethyl-7-oxodecahydro-1H-6,11b-(epoxymethano)-6a,9-methanocyclohepta[a]naphthalen-8(7H)-ylidene)methyl)phenyl)acetamide], the IC50 in the assay on AGS (Homo sapiens, AGS) was 22.1 ± 1.04 µM; in the assay with MGC803 (Homo sapiens, MGC-803), 10 ± 0.84 µM; in the assay with Bel7402 (Homo sapiens, Bel-7402) it was 14.6 ± 1.66 µM; with HCT116 (Homo sapiens, HCT-116, 48 h), 47.9 ± 3.91 µM; in the assay with A549 (Homo sapiens, A549), 97.1 ± 5.93 µM; with Hela (Homo sapiens, HeLa), greater than 100 µM. Further, the “antiproliferative activities” value in assay [1] is given as “poor antiproliferative activities”.

Turning to `C/C1=C\[C@H]2OC(=O)/C(=C/c3ccc(Cl)cc3)[C@@H]2CC/C(C)=C/CC1` [Compound 3], in the assay on A549 cells (A549 cells), the IC50 was 15.7 µM.

Take `COc1ccccc1/C=C1/C(=O)[C@]23[C@H](O)[C@H]1CC[C@H]2C12CO[C@]3(O)[C@@H](O)[C@@H]1C(C)(C)CC[C@@H]2O` [Compound 2j, (1S,4aR,5S,6S,6aR,9S,11aS,14R,E)-1,5,6,14-tetrahydroxy-8-(2-methoxybenzylidene)-4,4-dimethyldecahydro-1H-6,11b-(epoxymethano)-6a,9-methanocyclohepta-[a]naphthalen-7(8H)-one]: the IC50 in the assay with AGS (Homo sapiens, AGS) is 2.87 ± 0.58 µM; in the assay with MGC803 (Homo sapiens, MGC-803), 10.4 ± 1.29 µM; in the assay with Bel7402 (Homo sapiens, Bel-7402), 3.56 ± 0.52 µM; in the assay with HCT116 (Homo sapiens, HCT-116, 48 h), 5.08 µM; with HCT116 it was 5.48 ± 0.64 µM; in the assay on A549 (Homo sapiens, A549), 7.89 ± 0.99 µM. The half-inhibitory concentration (IC50) with Hela (Homo sapiens, HeLa) was determined as 24.7 ± 2.08 µM.
